Test results reported in a melting point compilation (Tetko et al.; mined from patent text by program, amines drawn as free bases though some values may be those of a salt).

Row | Structure (SMILES) | melting point [°C]
1 | O=C(O)c1cnc2ncnn2c1S | 247 to 249
2 | CCCN1CCc2cc(NC(=O)C(=O)N[C@H]3CCOC3O)ccc21 (stereo partly drawn) | 120 to 122
3 | O=c1[nH]c(=O)n([C@H]2CO[C@H](CO)O2)cc1/C=C/Cl | 101 to 102
4 | COc1ccc2c(c1)C(CCN1CC=C(c3ccccc3)CC1)C(C)N2C(C)=O (stereo not drawn) | 113 to 115
5 | COc1cc(C=O)cc2c(C)c(C)oc12 | 80 to 81
6 | NC(=O)c1cc(-c2ccc(OC(F)(F)F)cc2)c2c3c(ccc2c1)OCO3 | 188 to 190
7 | CCC(CC)Sc1cc2c(cc1Cl)N=C(CCl)NS2(=O)=O | 213 to 214
8 | O=c1cnn(-c2ccc(Cl)c(C(c3ccc(Cl)cc3)c3nc(-c4ccccc4)c(CNC(=S)Nc4ccccc4)s3)c2Cl)c(=O)[nH]1 (stereo not drawn) | 159
9 | CC(=O)c1sc2sc(-c3ccncc3)c(C)c2c1C | 171 to 173
10 | N#Cc1csc([N+](=O)[O-])c1Br | 176 to 178
11 | CC(=O)OCC1C(O)C2OC(C)(C)OC2C2NC(=O)c3cc4c(cc3C12)OCO4 (stereo not drawn) | > 200
12 | COc1cc(OC)c2c(=O)[nH]c(-c3ccc(OCC(=O)O)c(OC)c3)nc2c1 | 275 to 277
13 | Cc1ccc(C(=O)Nc2cc(F)ccc2F)cc1 | 108 to 110
14 | O=C1c2ccccc2-c2[nH]c(=O)c(=O)[nH]c21 | 243 to 253
15 | CCNC=C(C(=O)C=Cc1ccc(N(C)C)cc1)C(=O)OC | 129 to 130
16 | O=[N+]([O-])c1ccc(CF)cc1 | 33 to 34
17 | Cc1ncsc1NC(=O)Nc1ccc(-n2nc(C(F)(F)F)cc2C2CC2)cc1 | 124 to 126
18 | O=C1[C@@H]2Cc3c([nH]c4ccccc34)[C@H](c3ccc4c(c3)OCO4)N2C(=O)N1Cc1ccccc1 (relative stereo) | 208 to 210
19 | CC(=O)Nc1c(N(C)C)cnn(C)c1=O | 123 to 124
20 | N#Cc1c[nH]c(C(F)(F)F)c1-c1ccc(Cl)cc1 | 114 to 115

Row | Structure (SMILES) | melting point [°C]
21 | CS(=O)(=O)c1ccc(-c2cc(C(=O)c3ccc(Cl)cc3)sc2N2CCOCC2)cc1 | 169
22 | FC(F)(F)Oc1ccc(Nc2nc(-c3ccccc3)cc(N3CCOCC3)n2)cc1 | 260 to 262
23 | CCCCNC(=O)NS(=O)(=O)c1c(C(=O)OC)cnn1C | 88 to 90
24 | COc1ccc2c(c1)CCC1=C2CCC2(C(C)C)C(=O)CC=C12 (stereo not drawn) | 112 to 113
25 | CC(C)[C@H]1C[C@@H]([C@H](CC2CCCCC2)NC(=O)OCc2ccccc2)OC1=O | 117 to 118
26 | O=C1CC[N+]([O-])=C(c2ccccc2F)c2cc(Cl)ccc21 | 166 to 168
27 | Cc1nc(SCc2ccc(C(=O)O)s2)sc1CC(=O)O | 188 to 190
28 | Cn1cccc(N)c1=S | 98 to 100
29 | CC1CCCN(C2c3cc4nonc4cc3OC(C)(C)C2O)C1=O (stereo not drawn) | 146 to 149
30 | COc1ccc(C=O)c(OCCO)c1 | 94
31 | CC(C)(C)c1cc2c(c(C(C)(C)C)c1)O[PH](=O)Oc1c(cc(C(C)(C)C)cc1C(C)(C)C)C2 | 164
32 | CCOC(=O)N1CCc2c(sc3nc(-c4ccc(Cl)cc4)cn23)C1 | 156 to 159
33 | Cc1nc(-c2ccccc2C(F)(F)F)c(-c2ccccc2C(F)(F)F)o1 | 100 to 102
34 | Nn1cnn(C2CCc3ccccc3C2)c1=S (stereo not drawn) | 147 to 150
35 | COC(=O)C(Cl)=C(C)N | 68 to 70
36 | O=C1CN(N=Cc2ncc(-c3ccc(F)cc3)o2)C(=O)N1 | 281 to 282
37 | CCOC(=O)C(COC(=O)COc1ccc(NC(=O)c2ccccc2-c2ccc(C(F)(F)F)cc2)c(C(=O)N(C)C)c1)(C(=O)OCC)c1ccccc1 | 132 to 138
38 | O=C(Sc1ccccn1)c1c(F)c(F)c(F)c(F)c1F | 51
39 | CC1C(C)(C)c2ccc(O)cc2C1(C)C (stereo not drawn) | 149
40 | CC(C)(C)[Si](C)(C)Oc1ccc2c(c1)CCc1c-2c(=O)oc2cc(O[Si](C)(C)C(C)(C)C)ccc12 | 145 to 147

The remaining lines, values ahead:

Row | melting point [°C] | Structure (SMILES)
41 | 153 to 154 | NC(=O)NCCn1cc(Cn2ccnc2)c2ccccc21
42 | 125 to 127 | O=S(=O)(Cc1noc(-c2ccccc2)n1)c1ccc(CCNCC(O)c2ccc(OC(F)(F)F)cc2)cc1 (stereo not drawn)
43 | 116 to 118 | CCc1nc2c(cnn2CC)c(NC2CCOCC2)c1CNC(=O)c1cc(C)cc(C(=O)NCc2cccc(Br)c2)c1
44 | 209 to 211 | Cn1ccc(C(=O)c2sc(NC(=O)c3ccncc3)nc2-c2ccco2)c1
45 | 118 to 120 | CCOc1ccc(C(=O)NCCN2CCC(Oc3ccc(Cl)c(Cl)c3)CC2)cc1
46 | 203 | Clc1nn2c(-c3ccccc3Br)nnc2c2ccccc12
47 | 133 to 135 | CSC(=S)Nc1ccc(OCc2nc3ccccc3s2)cc1C
48 | 156 to 157 | CCCCOC(=O)COc1ccc(C(=O)Nc2ccccc2Sc2ccc(Cl)cc2-c2nnn[nH]2)cc1
49 | 112 to 118 | O=c1oc2cccnc2n1CN1CCN(c2cccc(C(F)(F)F)c2)CC1
50 | 190 to 195 | CCCN1C(=O)N2CC(c3cccnc3)CN=C2c2[nH]c(C3CCCC3)nc21 (stereo not drawn)
51 | 194 to 195 | CCCOc1ccc(S(=O)(=O)N2CCN(CCC)CC2)cc1-c1nc2cc3ncn(Cc4ccccc4)c3cc2c(=O)[nH]1
52 | 125 to 127 | Cc1cc(OCCCC#Cc2ccc(OC(F)(F)F)cc2)ccc1OCC(=O)O
53 | 53 to 65 | COc1ccccc1CN[C@H]1CCCN(CCCCCC(=O)O)[C@H]1c1ccccc1 (relative stereo)
54 | 114 to 115 | CCCCCCCCOc1ccc(-c2nc(-c3ccccc3)c(-c3ccccc3)n2CCCCCCCC(=O)O)cc1
55 | 67 to 71 | N[C@@H](Cc1cccc(Oc2ccc(Oc3ccc(O)cc3)cc2)c1)C(=O)O
56 | 179 to 181 | CCOC(=O)c1cnn(-c2cc(Cl)cc(Cl)c2)c1S(C)(=O)=O
57 | 270 to 274 | CCCn1cc2c(C3C(=O)Nc4ccc(Br)cc43)nc(NCCN(C)C)nc2n1 (stereo not drawn)
58 | 114 to 115 | Cc1cc(Br)cnc1CCCCn1nnc2cc(Cc3cccnc3)cnc21
59 | 169 to 170 | O=C1[C@H]2CCC[C@H]2N(C(=O)CCCCl)c2ccccc2N1Cc1ccccc1 (relative stereo)
60 | 111 to 116 | COc1cc(C)cc2c1C(N1CC[N+]([O-])(C(=O)Cc3ccncc3)CC1)c1ncc(Br)cc1CC2 (single isomer, unassigned; (-))
61 | 180 to 181 | Cc1ccc2c(c1)C(C(=O)Nc1ccccc1C(C)C)c1ccccc1CO2 (stereo not drawn)
62 | 207 to 209 | Cc1cc(-c2nc3cccnn3c2-c2ccnc(NC(=O)c3ccc(Cl)cc3)c2)ccc1F
63 | 204 to 206 | COc1cc2ncc(C#N)c(Nc3cccc(C(C)=O)c3)c2cc1OC
64 | 230 to 231 | CN(C)C1CCN(S(=O)(=O)c2ccc(Nc3ccnc4cc(Cl)ccc34)cc2)CC1
65 | 178 to 179 | CC(C)(O)CNC(=O)CC1CN=C(c2cc3cc(Oc4ccc(S(C)(=O)=O)nc4)ccc3[nH]2)S1 (stereo not drawn)
66 | 126 to 127 | CCS(=O)(=O)CCOc1cc(C)c(-c2cccc(COc3ccc(CCC(=O)O)c(F)c3)c2)c(C)c1
67 | 109 | NC(=O)c1cccc(CCCBr)c1
68 | 165 to 167 | COC(=O)c1ccc2[nH]c(-c3ccc(OC)c4nc(C)ccc34)nc2c1
